ChEMBL document CHEMBL4229348, “Structure-activity relationship studies of ultra-short peptides with potent activities against fluconazole-resistant Candida albicans” (Eur J Med Chem, 2018)
Converted amounts (≈) assume the structure as drawn. The source made the active and inactive calls. The rule behind the calls is not given here. Peptide text beside a SMILES is read from it.

Tests used:
Candida albicans [1] = assay: Antifungal activity against fluconazole-resistant Candida albicans ATCC 64550 after overnight incubation by CLSI broth microdilution method; type: functional
[2] = Retention time of the compound at 0.4 mM by HPLC analysis; type: physicochemical; conditions: 400 µM
NHDF = assay: Cytotoxicity against NHDF assessed as reduction in cell viability up to 200 uM after 5 days by CellTiter-Glo assay; type: cell-based; conditions: human, 120 h
Candida albicans [3] = assay: Antifungal activity against fluconazole-resistant Candida albicans TTSH-CALB01 after overnight incubation by CLSI broth microdilution method; type: functional
Candida albicans [4] = assay: Antifungal activity against fluconazole-resistant Candida albicans ATCC 200955 after overnight incubation by CLSI broth microdilution method; type: functional
Candida albicans [5] = assay: Antifungal activity against fluconazole-resistant Candida albicans ATCC MYA-573 after overnight incubation by CLSI broth microdilution method; type: functional
Candida albicans [6] = assay: Antifungal activity against fluconazole-resistant Candida albicans ATCC 64124 after overnight incubation by CLSI broth microdilution method; type: functional
Candida albicans [7] = assay: Fungicidal activity against fluconazole-resistant Candida albicans ATCC 64550 at 4 times MIC incubated for overnight flowed by replating and measured after 24 hrs; type: functional, organism-based
Candida albicans [8] = assay: Antifungal activity against fluconazole-resistant Candida albicans ATCC 96901 after overnight incubation by CLSI broth microdilution method; type: functional
Candida albicans [9] = assay: Antifungal activity against fluconazole-resistant Candida albicans TTSH-CALB02 after overnight incubation by CLSI broth microdilution method; type: functional
Candida albicans [10] = assay: Antifungal activity against fluconazole-resistant Candida albicans NUH-K6004 after overnight incubation by CLSI broth microdilution method; type: functional
Saccharomyces cerevisiae [11] = assay: Growth inhibition of Saccharomyces cerevisiae BY4743 incubated for 16 to 24 hrs; type: functional
Saccharomyces cerevisiae [12] = assay: Induction of membrane permeabilization in Saccharomyces cerevisiae BY4743 assessed as propidium iodide uptake at 46 uM preincubated for 2.5 hrs followed by propidium iodide addition and measured after 20 mins by bright-field and fluorescence microscopic analysis (reference value: 98%); type: functional
Saccharomyces cerevisiae [13] = assay: Induction of membrane permeabilization in Saccharomyces cerevisiae BY4743 assessed as propidium iodide uptake at 23 uM preincubated for 2.5 hrs followed by propidium iodide addition and measured after 20 mins by bright-field and fluorescence microscopic analysis (reference value: 98%); type: functional
[14] = Cytotoxicity against NHDF assessed as reduction in cell viability after 5 days by CellTiter-Glo assay; type: cell-based; conditions: human, NHDF cells
Candida albicans [15] = assay: Fungistatic activity against fluconazole-resistant Candida albicans ATCC 64550 at 4 times MIC incubated for overnight flowed by replating and measured after 24 hrs; type: functional, organism-based
[16] = Cytotoxicity against human bone marrow cells assessed as inhibition of colony formation; type: cell-based, Bone marrow cell
Candida albicans [17] = assay: Antifungal activity against fluconazole-susceptible Candida albicans; type: functional
Candida albicans [18] = assay: Potency index, ratio of omiganan MIC to compound MIC for antifungal activity against fluconazole-resistant Candida albicans ATCC 64550; type: functional

Row | Compound | MIC (Candida albicans [1]) [µM] | Retention_time [2] [min] | other results
1 | CCCCCCCCCCCC(=O)N[C@H](C(=O)N[C@@H](CCCCN)C(=O)N[C@H](C(=O)N[C@@H](CCCCN)C(=O)N[C@H](C(=O)N[C@@H](CCCCN)C(=O)N[C@H](C(=O)N[C@@H](CCCCN)C(N)=O)[C@@H](C)CC)[C@@H](C)CC)[C@@H](C)CC)[C@@H](C)CC (HELM PEPTIDE1{[CCCCCCCCCCCC(=O)[*:2]].I.K.I.K.I.K.I.K.[am]}$$$$V2.0) | > 100 | 20.8 | –
2 | CCCCCCCCCCCCCCCC(=O)N[C@H](C(=O)N[C@@H](CCCCN)C(=O)N[C@H](C(=O)N[C@@H](CCCCN)C(=O)N[C@H](C(=O)N[C@@H](CCCCN)C(=O)N[C@H](C(=O)N[C@@H](CCCCN)C(N)=O)[C@@H](C)CC)[C@@H](C)CC)[C@@H](C)CC)[C@@H](C)CC (HELM PEPTIDE1{[CCCCCCCCCCCCCCCC(=O)[*:2]].I.K.I.K.I.K.I.K.[am]}$$$$V2.0) | > 100 | 23.5 | –
3 | NCCCC[C@H](NC(=O)[C@H](CC1CCCCC1)NC(=O)[C@H](CCCCN)NC(=O)[C@H](CC1CCCCC1)NC(=O)[C@H](CCCCN)NC(=O)[C@H](CC1CCCCC1)NC(=O)[C@H](CCCCN)NC(=O)[C@@H](N)CC1CCCCC1)C(N)=O (HELM PEPTIDE1{[Cha].K.[Cha].K.[Cha].K.[Cha].K.[am]}$$$$V2.0) | > 100 | 17.9 | –
4 | CCCC[C@H](NC(=O)[C@H](CCCCN)NC(=O)[C@H](CCCC)NC(=O)[C@H](CCCCN)NC(=O)[C@H](CCCC)NC(=O)[C@H](CCCCN)NC(=O)[C@@H](N)CCCC)C(=O)N[C@@H](CCCCN)C(N)=O (HELM PEPTIDE1{[Nle].K.[Nle].K.[Nle].K.[Nle].K.[am]}$$$$V2.0) | 1.56 (≈ 1.53 µg/mL) | 14 | Activity (NHDF): Non-Toxic; MIC (Candida albicans [3]): 1.56 µM (≈ 1.53 µg/mL); MIC (Candida albicans [4]): 1.56 µM (≈ 1.53 µg/mL); MIC (Candida albicans [5]): 3.13 µM (≈ 3.07 µg/mL); MIC (Candida albicans [6]): 3.13 µM (≈ 3.07 µg/mL); Activity (Candida albicans [7]): Active; MIC (Candida albicans [8]): 1.56 µM (≈ 1.53 µg/mL); MIC (Candida albicans [9]): 1.56 µM (≈ 1.53 µg/mL); MIC (Candida albicans [10]): 1.56 µM (≈ 1.53 µg/mL); GI50 (Saccharomyces cerevisiae [11]): 5.75 µM; TGI (Saccharomyces cerevisiae [11]; read-out: GI100): 5.75 µM; Activity (Saccharomyces cerevisiae [12]): 100%; Activity (Saccharomyces cerevisiae [13]): 75%
5 | CCC[C@H](NC(=O)[C@H](CCCCN)NC(=O)[C@H](CCC)NC(=O)[C@H](CCCCN)NC(=O)[C@H](CCC)NC(=O)[C@H](CCCCN)NC(=O)[C@@H](N)CCC)C(=O)N[C@@H](CCCCN)C(N)=O (HELM PEPTIDE1{[Nva].K.[Nva].K.[Nva].K.[Nva].K.[am]}$$$$V2.0) | 6.25 (≈ 5.79 µg/mL) | 12 | –
6 | OC(Cn1cncn1)(Cn1cncn1)c1ccc(F)cc1F [FLUCONAZOLE] | > 100 | – | MIC (Candida albicans [3]): > 100 µM; MIC (Candida albicans [4]): > 100 µM; MIC (Candida albicans [5]): > 100 µM; MIC (Candida albicans [6]): > 100 µM; MIC (Candida albicans [8]): > 100 µM; MIC (Candida albicans [9]): > 100 µM; MIC (Candida albicans [10]): > 100 µM
7 | Clc1ccc(COC(Cn2ccnc2)c2ccc(Cl)cc2Cl)c(Cl)c1 (stereo not drawn) [MICONAZOLE] | 12.5 (≈ 5.2 µg/mL) | – | MIC (Candida albicans [3]): 12.5 µM (≈ 5.2 µg/mL); GI50 at 120 h [14]: 10.3 µM; MIC (Candida albicans [4]): 12.5 µM (≈ 5.2 µg/mL); MIC (Candida albicans [5]): 6.25 µM (≈ 2.6 µg/mL); Activity (Candida albicans [15]): Active; MIC (Candida albicans [6]): 12.5 µM (≈ 5.2 µg/mL); MIC (Candida albicans [8]): 6.25 µM (≈ 2.6 µg/mL); MIC (Candida albicans [9]): 12.5 µM (≈ 5.2 µg/mL); MIC (Candida albicans [10]): 12.5 µM (≈ 5.2 µg/mL); GI50 [16]: 12.8 µM
8 | CC(O)CO (stereo not drawn) [PROPYLENE GLYCOL] | – | – | Activity (NHDF): Non-Toxic
9 | Ac-IKIKIKIK-NH2 | 12.5 | 14.3 | –
10 | H-AKAKAKAK-NH2 | > 100 | 1.9 | –
11 | H-AKIKIKIK-NH2 | 6.25 | 12.4 | –
12 | H-EKEKEKEK-NH2 | > 100 | 1.9 | –
13 | H-FKFKFKFK-NH2 | 6.25 | 15.2 | –
14 | H-GKGKGKGK-NH2 | > 100 | 1.6 | –
15 | H-IAIKIKIK-NH2 | 12.5 | 13.7 | –
16 | H-IEIEIEIE-NH2 | > 100 | 16.1 | –
17 | H-IIIIKKKK-NH2 | 12.5 | 12 | –
18 | H-IIKKIIKK-NH2 | > 100 | 11.6 | –
19 | H-IK(Ac)IK(Ac)IK(Ac)IK(Ac)-NH2 | > 100 | 22.9 | –
20 | H-IKAKIKIK-NH2 | 6.25 | 11.8 | –
21 | H-IKIAIKIK-NH2 | 12.5 | 13.8 | –

Row | Compound | MIC (Candida albicans [1]) [µM] | Retention_time [2] [min] | other results
22 | H-IKIKAKIK-NH2 | 6.25 | 11.8 | –
23 | H-IKIKIAIK-NH2 | 12.5 | 13.8 | –
24 | H-IKIKIKAK-NH2 | 6.25 | 12 | –
25 | H-IKIKIKIA-NH2 | 12.5 | 13.9 | –
26 | H-IKIKIKIK-NH2 | 3.13 | 13.4 | MIC (Candida albicans [17]): 1.56 µM; Ratio (Candida albicans [18]): 16
27 | H-IKIKIKIK-OH | 12.5 | 13.5 | –
28 | H-IRIRIRIR-NH2 | 12.5 | 13.9 | –
29 | H-KIKIKIKI-NH2 | 3.13 | 14 | –
30 | H-KKIIKKII-NH2 | > 100 | 12.6 | –
31 | H-KKKKKKKK-NH2 | > 100 | 2 | –
32 | H-KLKLK-NH2 | > 100 | 11.2 | –
33 | H-KLKLKLK-NH2 | 25 | 12.7 | –
34 | H-KLKLKLKL-NH2 | 3.13 | 14.4 | –
35 | H-KLKLKLKLK-NH2 | 3.13 | 13.6 | –
36 | H-LKLKL-NH2 | > 100 | 13.7 | –
37 | H-LKLKLK-NH2 | 100 | 12.8 | –
38 | H-LKLKLKL-NH2 | 50 | 14.5 | –
39 | H-LKLKLKLKL-NH2 | 3.13 | 15.1 | –
40 | H-LKLKLKLKLK-NH2 | 3.13 | 14.5 | –
41 | H-VKVKVKVK-NH2 | 6.25 | 11.1 | –
42 | H-WKWKWKWK-NH2 | > 100 | 15.9 | –
